Laboratory results from ChEMBL document CHEMBL3867477 (Bioorg Med Chem Lett, 2016).
In brackets after ≈: the same amount, converted by molar mass.

How the values were obtained:
[1] = target: T1, Orexin/Hypocretin receptor type 1 (Homo sapiens) (UniProt O43613); assay: Binding affinity to OX1 receptor (unknown origin) assessed as dissociation rate constant
T1 sequence (whole entry): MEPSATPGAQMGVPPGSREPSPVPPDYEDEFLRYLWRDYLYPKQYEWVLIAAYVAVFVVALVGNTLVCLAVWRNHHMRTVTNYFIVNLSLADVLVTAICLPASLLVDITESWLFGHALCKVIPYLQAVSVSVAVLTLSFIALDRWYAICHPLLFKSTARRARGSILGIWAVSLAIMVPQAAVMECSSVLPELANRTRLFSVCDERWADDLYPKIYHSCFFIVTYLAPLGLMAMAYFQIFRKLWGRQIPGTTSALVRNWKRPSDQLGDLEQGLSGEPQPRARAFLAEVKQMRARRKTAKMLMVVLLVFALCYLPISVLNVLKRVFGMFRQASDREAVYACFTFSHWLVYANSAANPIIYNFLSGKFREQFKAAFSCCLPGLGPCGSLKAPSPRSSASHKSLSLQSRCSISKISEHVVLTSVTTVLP

[2] = Protein binding in rhesus monkey plasma; format: ADME, cell-free, Macaca mulatta; conditions: read-out: PPB (converted)
[3] = AUC in rat at 10 mg/kg, po; format: ADME, organism-based; conditions: in vivo
[4] = Oral bioavailability in rat at 10 mg/kg; format: ADME, organism-based; conditions: in vivo
[5] = Intrinsic clearance in rhesus monkey liver microsomes; format: ADME, Macaca mulatta; conditions: read-out: CLH
[6] = Clearance in dog at 0.5 mg/kg, iv or 10 mg/kg, po; format: ADME, organism-based, Canis lupus familiaris; conditions: in vivo
[7] = target: T1, Orexin/Hypocretin receptor type 1 (Homo sapiens); assay: Binding affinity to OX1 receptor (unknown origin) assessed as association rate constant
[8] = Displacement of (2S)-N-(2-phenylphenyl)-1-[2-[1-(tritritiomethyl)benzimidazol-2-yl]sulfanylacetyl]pyrrolidine-2-carboxamide from human OX1 receptor Ile408-Val mutant expressed on CHO cell membrane measured after 3 hrs by TopCount method; format: cell membranes
[9] = AUC in rat at 50 mg/kg, po; format: ADME, organism-based; conditions: in vivo
[10] = Aqueous solubility of the compound at pH 7; format: physicochemical; conditions: aqueous medium
[11] = Protein binding in dog plasma; format: ADME, cell-free, Canis lupus familiaris; conditions: read-out: PPB (converted)
[12] = Cmax in rat at 20 mg/kg, po; format: ADME, organism-based; design: dose 20 mg/kg, route oral; conditions: in vivo
[13] = Intrinsic clearance in dog liver microsomes; format: ADME, Canis lupus familiaris; conditions: read-out: CLH
Orexin receptor type 2 [14] = target: T2, Orexin receptor type 2 (Rattus norvegicus, UniProt P56719); format: functional
T2 sequence (P56719 whole entry): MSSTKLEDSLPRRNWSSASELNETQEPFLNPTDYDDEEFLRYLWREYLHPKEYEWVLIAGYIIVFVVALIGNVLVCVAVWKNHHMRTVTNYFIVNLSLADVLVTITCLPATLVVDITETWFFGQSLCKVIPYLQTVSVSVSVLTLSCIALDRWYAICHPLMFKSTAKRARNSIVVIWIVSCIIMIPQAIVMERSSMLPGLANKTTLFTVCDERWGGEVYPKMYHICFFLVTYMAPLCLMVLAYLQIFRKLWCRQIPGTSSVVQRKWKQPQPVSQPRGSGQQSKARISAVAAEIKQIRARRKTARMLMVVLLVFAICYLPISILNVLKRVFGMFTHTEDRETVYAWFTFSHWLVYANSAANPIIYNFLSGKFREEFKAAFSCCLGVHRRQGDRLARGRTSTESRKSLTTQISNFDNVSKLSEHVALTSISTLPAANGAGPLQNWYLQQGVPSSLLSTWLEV
Description: Antagonist activity at rat OX2 receptor assessed as inhibition of Ala-6,12 orexin-A-induced calcium increase preincubated for 5 mins prior to Ala-6,12 orexin-A addition measured at 1 sec intervals for 1 min by Fluo-4AM dye-based FLIPR assay

[15] = Cmax in rat at 10 mg/kg, po; format: ADME, organism-based; design: dose 10 mg/kg, route oral; conditions: in vivo
[16] = Aqueous solubility of the compound at pH 2; format: physicochemical; conditions: aqueous medium
[17] = Apparent permeability of the compound; format: ADME; conditions: not told
[18] = target: T3, Orexin/Hypocretin receptor type 1 (Homo sapiens, UniProt O43613); assay: Binding affinity to OX1 receptor (unknown origin)
T3 sequence (O43613 whole entry): T1 sequence (whole entry)

[19] = Half life in rat at 2 mg/kg, iv or 10 mg/kg, po; format: ADME, organism-based; conditions: in vivo
Orexin receptor type 2 [20] = target: T4, Orexin receptor type 2 (Homo sapiens, UniProt O43614); format: functional, cell-based, CHO
T4 sequence (O43614 whole entry): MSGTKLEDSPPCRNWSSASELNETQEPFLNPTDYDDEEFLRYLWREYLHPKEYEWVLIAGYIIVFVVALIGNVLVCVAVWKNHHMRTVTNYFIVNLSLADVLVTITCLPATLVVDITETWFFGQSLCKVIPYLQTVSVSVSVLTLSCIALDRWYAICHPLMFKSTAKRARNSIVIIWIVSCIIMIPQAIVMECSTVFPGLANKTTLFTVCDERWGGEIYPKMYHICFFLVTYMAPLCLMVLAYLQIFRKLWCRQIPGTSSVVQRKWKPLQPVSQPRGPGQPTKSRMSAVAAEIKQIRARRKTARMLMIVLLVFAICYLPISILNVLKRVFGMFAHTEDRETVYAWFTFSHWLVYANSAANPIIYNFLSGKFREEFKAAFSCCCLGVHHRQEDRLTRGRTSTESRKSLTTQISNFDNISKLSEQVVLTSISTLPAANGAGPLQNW
Description: Antagonist activity at human OX2 receptor expressed on CHO cell membrane assessed as inhibition of Ala-6,12 orexin-A-induced calcium increase preincubated for 5 mins prior to Ala-6,12 orexin-A addition measured at 1 sec intervals for 1 min by Fluo-4AM dye-based FLIPR assay

[21] = Selectivity index, ratio of IC50 for human OX1 receptor to IC50 for rat OX1 receptor
[22] = AUC in rat at 20 mg/kg, po; format: ADME, organism-based; conditions: in vivo
Rattus norvegicus [23] = assay: Displacement of (2S)-N-(2-phenylphenyl)-1-[2-[1-(tritritiomethyl)benzimidazol-2-yl]sulfanylacetyl]pyrrolidine-2-carboxamide from human OX1R expressed in transgenic rat brain administered orally; format: functional
[24] = Protein binding in rat plasma; format: ADME, cell-free; conditions: read-out: PPB (converted)
[25] = Clearance in rhesus monkey at 2 mg/kg, iv or 10 mg/kg, po; format: ADME, organism-based, Macaca mulatta; conditions: in vivo
[26] = Oral bioavailability in rhesus monkey at 30 mg/kg; format: ADME, organism-based, Macaca mulatta; conditions: in vivo
[27] = Half life in rhesus monkey at 2 mg/kg, iv or 10 mg/kg, po; format: ADME, organism-based, Macaca mulatta; conditions: in vivo
[28] = target: T5, Orexin/Hypocretin receptor type 1 (Rattus norvegicus, UniProt P56718); assay: Antagonist activity at rat OX1 receptor assessed as inhibition of Ala-6,12 orexin-A-induced calcium increase preincubated for 5 mins prior to Ala-6,12 orexin-A addition measured at 1 sec intervals for 1 min by Fluo-4AM dye-based FLIPR assay; format: functional
T5 sequence (P56718 whole entry): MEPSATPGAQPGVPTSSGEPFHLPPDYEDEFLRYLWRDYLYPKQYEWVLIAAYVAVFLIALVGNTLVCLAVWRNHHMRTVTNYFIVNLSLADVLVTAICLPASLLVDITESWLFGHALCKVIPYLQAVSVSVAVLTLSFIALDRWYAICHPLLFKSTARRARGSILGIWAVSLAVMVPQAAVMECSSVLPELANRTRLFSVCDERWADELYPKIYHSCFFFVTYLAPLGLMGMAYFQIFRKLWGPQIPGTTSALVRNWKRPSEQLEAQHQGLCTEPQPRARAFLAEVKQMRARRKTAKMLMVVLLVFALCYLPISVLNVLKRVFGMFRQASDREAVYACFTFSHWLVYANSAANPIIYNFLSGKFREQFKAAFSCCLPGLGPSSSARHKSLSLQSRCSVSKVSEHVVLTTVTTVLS

Rattus norvegicus [29] = species: Rattus norvegicus; assay: Selectivity index, ratio of IC50 for rat OX2 receptor to IC50 for rat OX1 receptor
[30] = Antagonist activity at human OX1 receptor Ile408-Val mutant expressed on CHO cell membrane assessed as inhibition of Ala-6,12 orexin-A-induced calcium increase preincubated for 5 mins prior to Ala-6,12 orexin-A addition measured at 1 sec intervals for 1 min by Fluo-4AM dye-based FLIPR assay
Orexin receptor type 2 [31] = target: T4, Orexin receptor type 2; assay: Displacement of (2S)-N-(2-pyrrol-1-ylphenyl)-1-[2-[1-(tritritiomethyl)benzimidazol-2-yl]sulfanylacetyl]pyrrolidine-2-carboxamide from human OX2 receptor expressed on CHO cell membrane measured after 3 hrs by TopCount method; format: cell membranes
[32] = Intrinsic clearance in human liver microsomes; format: ADME; conditions: read-out: CLH
[33] = Cmax in rat at 50 mg/kg, po; format: ADME, organism-based; design: dose 50 mg/kg, route oral; conditions: in vivo
[34] = Clearance in rat at 2 mg/kg, iv; format: ADME, organism-based; conditions: in vivo
[35] = Oral bioavailability in dog at 3 mg/kg; format: ADME, organism-based, Canis lupus familiaris; conditions: in vivo
CHO = assay: Selectivity index, ratio of Ki for human OX2 receptor expressed on CHO cell membrane to Ki for Ile408-Val variant human OX1 receptor expressed on CHO cell membrane; format: cell-based
[36] = Half life in dog at 0.5 mg/kg, iv or 10 mg/kg, po; format: ADME, organism-based, Canis lupus familiaris; conditions: in vivo
[37] = Protein binding in human plasma; format: ADME, cell-free; conditions: read-out: PPB (converted)
[38] = Intrinsic clearance in rat liver microsomes; format: ADME; conditions: read-out: CLH

K [1]: 0.102 s⁻¹
fraction unbound [2]: 0.06
AUC [3]: 0.77 µM·h
bioavailability [4]: 13%
CLint scaled [5]: 775 mL/min/kg
clearance [6]: 38 mL/min/kg
K [7]: 1.08 ×10⁸ /M/s
AUC [9]: 153 µM·h
solubility [10]: 171 µM (≈ 69.8 µg/mL)
fraction unbound [11]: 0.08
Cmax [12]: 5 µM
CLint scaled [13]: 485 mL/min/kg
Ki (Orexin receptor type 2 [14]): > 10000 nM
Cmax [15]: 0.73 µM
solubility [16]: 194 µM (≈ 79.2 µg/mL)
Papp [17]: 35 ×10⁻⁶ cm/s
Kd [18]: 0.94 nM
half-life [19]: 168 min
IC50 (Orexin receptor type 2 [20]): > 10000 nM
Ratio IC50 [21]: 3 to 4
AUC [22]: 8.3 µM·h
fraction unbound [24]: 0.08
clearance [25]: 33 mL/min/kg
bioavailability [26]: 1%
half-life [27]: 48 min
Ki [28]: 6800 to 10000 nM
Ratio IC50 (Rattus norvegicus [29]): > 625
IC50 [30]: 30 nM
Ki (Orexin receptor type 2 [31]): 1010 nM
CLint scaled [32]: 62 mL/min/kg
Cmax [33]: 24 µM
clearance [34]: 75 mL/min/kg
bioavailability [35]: 37%
half-life [36]: 30 min
fraction unbound [37]: 0.11
CLint scaled [38]: 320 mL/min/kg
SMILES: O=C(c1cccn2cncc12)N1CCC(F)(F)[C@@H](Oc2ccc3ccccc3n2)C1
Ki [8]: 1.8 nM
Occ50 (Rattus norvegicus [23]): 0.032 µM
Ratio Ki (CHO): 561
